The results in this text go back to article PMC9066185 (RSC Advances, 2019).

For this assay, the target named is xanthine oxidase from cow's milk (XO) (Bos taurus, UniProt P80457). Briefly: uric acid formation at […] nm. The assay is classed as biochemical.
xanthine oxidase from cow's milk (XO), sequence (P80457 2-1332): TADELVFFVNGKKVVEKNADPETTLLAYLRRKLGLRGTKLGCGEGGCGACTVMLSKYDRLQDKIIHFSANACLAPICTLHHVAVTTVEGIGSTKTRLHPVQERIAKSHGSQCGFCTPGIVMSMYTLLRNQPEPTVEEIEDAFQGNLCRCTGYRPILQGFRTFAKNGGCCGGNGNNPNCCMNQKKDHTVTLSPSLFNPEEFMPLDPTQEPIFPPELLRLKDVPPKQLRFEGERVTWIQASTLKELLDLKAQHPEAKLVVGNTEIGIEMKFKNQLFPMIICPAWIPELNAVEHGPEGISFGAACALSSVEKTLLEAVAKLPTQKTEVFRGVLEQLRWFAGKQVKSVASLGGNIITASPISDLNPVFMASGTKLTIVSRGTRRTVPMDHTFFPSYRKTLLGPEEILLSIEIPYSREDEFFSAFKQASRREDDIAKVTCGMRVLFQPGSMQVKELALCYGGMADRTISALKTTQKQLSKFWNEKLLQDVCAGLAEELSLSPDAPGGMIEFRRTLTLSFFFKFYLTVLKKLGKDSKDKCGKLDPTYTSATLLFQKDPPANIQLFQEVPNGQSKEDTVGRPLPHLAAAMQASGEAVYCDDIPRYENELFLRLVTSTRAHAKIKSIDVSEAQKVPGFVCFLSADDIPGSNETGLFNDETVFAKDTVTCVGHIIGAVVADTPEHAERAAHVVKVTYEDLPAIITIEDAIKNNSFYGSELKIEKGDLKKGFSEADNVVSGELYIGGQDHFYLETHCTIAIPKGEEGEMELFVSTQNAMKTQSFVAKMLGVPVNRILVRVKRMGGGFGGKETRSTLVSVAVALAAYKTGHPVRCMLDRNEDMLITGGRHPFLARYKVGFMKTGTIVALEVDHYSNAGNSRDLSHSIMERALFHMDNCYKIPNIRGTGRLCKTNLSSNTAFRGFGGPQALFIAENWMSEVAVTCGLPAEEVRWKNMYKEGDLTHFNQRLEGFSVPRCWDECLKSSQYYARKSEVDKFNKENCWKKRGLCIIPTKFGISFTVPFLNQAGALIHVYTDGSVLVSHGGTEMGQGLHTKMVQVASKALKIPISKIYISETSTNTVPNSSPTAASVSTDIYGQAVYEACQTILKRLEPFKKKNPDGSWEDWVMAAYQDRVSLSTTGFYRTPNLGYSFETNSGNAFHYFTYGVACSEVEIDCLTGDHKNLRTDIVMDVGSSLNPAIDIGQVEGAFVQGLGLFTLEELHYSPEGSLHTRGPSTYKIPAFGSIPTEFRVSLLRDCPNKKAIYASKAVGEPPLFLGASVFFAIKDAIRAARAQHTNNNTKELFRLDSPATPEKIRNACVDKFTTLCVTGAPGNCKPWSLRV

Take `Oc1cc(O)c2c(c1)O[C@H](c1ccc(O)c(O)c1)[C@H](O)[C@H]2c1c(O)cc(O)c2c1O[C@H](c1ccc(O)c(O)c1)[C@@H](O)C2` [procyanidin B1, (−)-epicatechin-(4β,8)-(+)-catechin]: 92.5 µM corresponded to half-maximal inhibition (IC50).
